# Measurements reported in PubChem BioAssay AID248 (DTP/NCI, 2004).
# Inconclusive results and toxic doses are left out.
# System: L1210 leukemia ip in BDF1 mice, survival T/C
# Assay: NCI In Vivo Anticancer Drug Screen. Data for tumor model L1210 Leukemia (intraperitoneal) in B6D2F1 (BDF1) mice
# Settings: endpoint: mean survival time, higher = longer survival
# Outline: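 Each compound was tested against a transplantable tumor grown in mice. The endpoint was survival, with treated animals benchmarked against vehicle controls as a simple ratio.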
# [1] = dose: 100.0 mg/kg/injection, schedule: Q01DX009 (ip), vehicle: Klucel (hydroxypropylcellulose) (HPC)
# [2] = dose: 200.0 mg/kg/injection, schedule: Q01DX009 (ip), vehicle: Klucel (hydroxypropylcellulose) (HPC)
# [3] = dose: 400.0 mg/kg/injection, schedule: Q01DX009 (ip), vehicle: Klucel (hydroxypropylcellulose) (HPC)
# [4] = dose: 100.0 mg/kg/injection, schedule: Q04DX003 (ip), vehicle: saline with Tween-80
# [5] = dose: 200.0 mg/kg/injection, schedule: Q04DX003 (ip), vehicle: saline with Tween-80
# [6] = dose: 400.0 mg/kg/injection, schedule: Q04DX003 (ip), vehicle: saline with Tween-80
# [7] = dose: 5.0 mg/kg/injection, schedule: Q01DX001 (ip), vehicle: saline
# [8] = dose: 10.0 mg/kg/injection, schedule: Q01DX001 (ip), vehicle: saline
# [9] = dose: 20.0 mg/kg/injection, schedule: Q01DX001 (ip), vehicle: saline
# [10] = dose: 100.0 mg/kg/injection, schedule: Q04DX003 (ip), vehicle: saline
# [11] = dose: 200.0 mg/kg/injection, schedule: Q04DX003 (ip), vehicle: saline
# [12] = dose: 400.0 mg/kg/injection, schedule: Q04DX003 (ip), vehicle: saline
# [13] = dose: 75.0 mg/kg/injection, schedule: Q01DX001 (ip), vehicle: other
# [14] = dose: 150.0 mg/kg/injection, schedule: Q01DX001 (ip), vehicle: other
# [15] = dose: 100.0 mg/kg/injection, schedule: Q04DX003 (ip), vehicle: Klucel (hydroxypropylcellulose) (HPC)
# [16] = dose: 200.0 mg/kg/injection, schedule: Q04DX003 (ip), vehicle: Klucel (hydroxypropylcellulose) (HPC)
# [17] = dose: 400.0 mg/kg/injection, schedule: Q04DX003 (ip), vehicle: Klucel (hydroxypropylcellulose) (HPC)
smiles,measurement,setting,value
CCCCCCCCCCCCCCCCOc1ccc(C(=O)CC(=O)OC)cc1,T/C,[1],93 % of control
same,T/C,"dose: 100.0 mg/kg/injection, schedule: Q04DX003 (ip), vehicle: other",94 % of control
same,T/C,[2],92 % of control
same,T/C,"dose: 200.0 mg/kg/injection, schedule: Q04DX003 (ip), vehicle: other",101 % of control
same,T/C,[3],92 % of control
same,T/C,"dose: 400.0 mg/kg/injection, schedule: Q04DX003 (ip), vehicle: other",94 % of control
O=C(Nc1cccc([N+](=O)[O-])c1)Nc1ccccc1Cl,T/C,"dose: 100.0 mg/kg/injection, schedule: Q04DX002 (ip), vehicle: saline + alcohol",88 % of control
same,T/C,"dose: 200.0 mg/kg/injection, schedule: Q04DX002 (ip), vehicle: saline + alcohol",88 % of control
same,T/C,"dose: 400.0 mg/kg/injection, schedule: Q04DX002 (ip), vehicle: saline + alcohol",88 % of control
Cc1cc(S(=O)(=O)F)ccc1NC(=O)CCc1ccc(N2C(N)=NC(N)=NC2(C)C)cc1,T/C,"dose: 100.0 mg/kg/injection, schedule: Q01DX001 (ip), vehicle: Klucel (hydroxypropylcellulose) (HPC)",98 % of control
same,T/C,"dose: 200.0 mg/kg/injection, schedule: Q01DX001 (ip), vehicle: Klucel (hydroxypropylcellulose) (HPC)",102 % of control
O=C(Nc1ccccc1)Nc1ccc(C(=O)CCl)cc1,T/C,"dose: 100.0 mg/kg/injection, schedule: Q01DX005 (ip), vehicle: saline with Tween-80",96 % of control
same,T/C,[4],102 % of control
same,T/C,"dose: 200.0 mg/kg/injection, schedule: Q01DX005 (ip), vehicle: saline with Tween-80",110 % of control
same,T/C,[5],112 % of control
same,T/C,"dose: 400.0 mg/kg/injection, schedule: Q01DX005 (ip), vehicle: saline with Tween-80",92 % of control
same,T/C,[6],100 % of control
CCCCC#C/C(C)=N\Nc1ccc([N+](=O)[O-])cc1[N+](=O)[O-],T/C,"dose: 50.0 mg/kg/injection, schedule: Q04DX002 (ip), vehicle: saline with Tween-80",98 % of control
same,T/C,"dose: 100.0 mg/kg/injection, schedule: Q04DX002 (ip), vehicle: saline with Tween-80",173 % of control
C1CCC(CCNCCC2CCCCC2)CC1,T/C,[7],102 % of control
same,T/C,[8],102 % of control
same,T/C,[9],104 % of control
Cc1ccnc(N)c1,T/C,"dose: 12.5 mg/kg/injection, schedule: Q04DX002 (ip), vehicle: saline",114 % of control
same,T/C,"dose: 25.0 mg/kg/injection, schedule: Q04DX002 (ip), vehicle: saline",102 % of control
same,T/C,"dose: 50.0 mg/kg/injection, schedule: Q04DX002 (ip), vehicle: saline",96 % of control
Clc1ccc(Cl)c(N=Cc2ccc3c(c2)OCO3)c1,T/C,[10],92 % of control
same,T/C,[11],95 % of control
same,T/C,[12],92 % of control
CC1(C)CCS1(=O)=O,T/C,"dose: 100.0 mg/kg/injection, schedule: Q04DX002 (ip), vehicle: saline",100 % of control
same,T/C,"dose: 200.0 mg/kg/injection, schedule: Q04DX002 (ip), vehicle: saline",100 % of control
same,T/C,"dose: 400.0 mg/kg/injection, schedule: Q04DX002 (ip), vehicle: saline",100 % of control
[B-][N+](CC)(CC)c1ccccc1,T/C,"dose: 50.0 mg/kg/injection, schedule: Q01DX009 (ip), vehicle: saline with Tween-80",92 % of control
same,T/C,"dose: 100.0 mg/kg/injection, schedule: Q01DX009 (ip), vehicle: saline with Tween-80",95 % of control
same,T/C,"dose: 200.0 mg/kg/injection, schedule: Q01DX009 (ip), vehicle: saline with Tween-80",92 % of control
COC(=O)CS(=O)(=O)C(C)(C)C(=O)c1ccccc1,T/C,"dose: 37.5 mg/kg/injection, schedule: Q01DX009 (ip), vehicle: saline",96 % of control
same,T/C,"dose: 75.0 mg/kg/injection, schedule: Q01DX009 (ip), vehicle: saline",92 % of control
same,T/C,"dose: 150.0 mg/kg/injection, schedule: Q01DX009 (ip), vehicle: saline",100 % of control
same,T/C,"dose: 300.0 mg/kg/injection, schedule: Q01DX009 (ip), vehicle: saline",94 % of control
CC(=O)OC1=C(Cl)C(=O)c2ccccc2C1=O,T/C,[13],89 % of control
same,T/C,[14],94 % of control
c1cc[c]([Sn]([c]2ccccc2)([c]2ccccc2)[n]2nnc3ccccc32)cc1,T/C,"dose: 6.25 mg/kg/injection, schedule: Q04DX002 (ip), vehicle: saline with Tween-80",96 % of control
same,T/C,"dose: 12.5 mg/kg/injection, schedule: Q04DX002 (ip), vehicle: saline with Tween-80",101 % of control
same,T/C,"dose: 25.0 mg/kg/injection, schedule: Q04DX002 (ip), vehicle: saline with Tween-80",101 % of control
COC(=O)C1CC(=O)C2(C)CCc3c(ccc4cc(OC)ccc34)C12 (centres undefined),T/C,"dose: 100.0 mg/kg/injection, schedule: Q01DX009 (sc), vehicle: steriod suspending solution",103 % of control
same,T/C,"dose: 100.0 mg/kg/injection, schedule: Q04DX003 (sc), vehicle: steriod suspending solution",102 % of control
same,T/C,"dose: 200.0 mg/kg/injection, schedule: Q01DX009 (sc), vehicle: steriod suspending solution",93 % of control
same,T/C,"dose: 200.0 mg/kg/injection, schedule: Q04DX003 (sc), vehicle: steriod suspending solution",86 % of control
same,T/C,"dose: 400.0 mg/kg/injection, schedule: Q01DX009 (sc), vehicle: steriod suspending solution",88 % of control
same,T/C,"dose: 400.0 mg/kg/injection, schedule: Q04DX003 (sc), vehicle: steriod suspending solution",94 % of control
CN1CCCCC1C(O)CO (centres undefined),T/C,[10],103 % of control
same,T/C,[11],102 % of control
same,T/C,[12],100 % of control
CC1(C)OC(=O)C2C3CCC(C2C(=O)O)C31 (centres undefined),T/C,[15],100 % of control
same,T/C,[16],96 % of control
same,T/C,[17],100 % of control
O=C1C=C(S(=O)(=O)c2ccccc2)C(=O)c2ccccc21,T/C,[13],93 % of control
same,T/C,[14],98 % of control
C=CNC(=O)Oc1ccccc1,T/C,"dose: 100.0 mg/kg/injection, schedule: Q01DX001 (ip), vehicle: other",96 % of control
same,T/C,"dose: 200.0 mg/kg/injection, schedule: Q01DX001 (ip), vehicle: other",100 % of control
same,T/C,"dose: 400.0 mg/kg/injection, schedule: Q01DX001 (ip), vehicle: other",91 % of control
CCCCCCCCCCCCCCCCOc1c(Cl)cc(Cl)cc1Cl,T/C,"dose: 100.0 mg/kg/injection, schedule: Q04DX002 (ip), vehicle: Klucel (hydroxypropylcellulose) (HPC)",102 % of control
same,T/C,"dose: 200.0 mg/kg/injection, schedule: Q04DX002 (ip), vehicle: Klucel (hydroxypropylcellulose) (HPC)",98 % of control
same,T/C,"dose: 400.0 mg/kg/injection, schedule: Q04DX002 (ip), vehicle: Klucel (hydroxypropylcellulose) (HPC)",102 % of control
CCN1N=Nc2cccc3cccc1c23,T/C,"dose: 100.0 mg/kg/injection, schedule: Q04DX003 (ip), vehicle: acetone",99 % of control
same,T/C,"dose: 200.0 mg/kg/injection, schedule: Q04DX003 (ip), vehicle: acetone",100 % of control
CCCOc1ccc(C)cc1,T/C,"dose: 100.0 mg/kg/injection, schedule: Q01DX001 (ip), vehicle: saline",93 % of control
same,T/C,"dose: 200.0 mg/kg/injection, schedule: Q01DX001 (ip), vehicle: saline",108 % of control
COC(=O)CCC#CC#CCCC(=O)OC,T/C,[1],97 % of control
same,T/C,[15],90 % of control
same,T/C,[2],102 % of control
same,T/C,[16],95 % of control
same,T/C,[3],108 % of control
same,T/C,[17],90 % of control
O=C(Nc1ccc([N+](=O)[O-])cc1)c1ccc([N+](=O)[O-])cc1,T/C,[4],94 % of control
same,T/C,[5],94 % of control
same,T/C,[6],89 % of control
Cc1cc(Cl)c(Cl)cc1NC(=O)c1c(Br)c(Br)c(Br)c(Br)c1C(=O)O,T/C,[1],108 % of control
same,T/C,[2],96 % of control
same,T/C,[3],95 % of control
CCC(C)C1(C)C(=O)N(C)C(=S)N(C)C1=O (centres undefined),T/C,[7],95 % of control
same,T/C,[8],91 % of control
same,T/C,[9],96 % of control
same,T/C,"dose: 40.0 mg/kg/injection, schedule: Q01DX001 (ip), vehicle: saline",89 % of control
Clc1ccc(C(Cl)c2ccc(Cl)cc2)cc1,T/C,[15],105 % of control
same,T/C,[16],107 % of control
same,T/C,[17],107 % of control
CCCCCCCCNC(=O)c1ccc([N+](=O)[O-])s1,T/C,"dose: 100.0 mg/kg/injection, schedule: Q01DX005 (ip), vehicle: saline",94 % of control
same,T/C,"dose: 200.0 mg/kg/injection, schedule: Q01DX005 (ip), vehicle: saline",94 % of control
same,T/C,"dose: 400.0 mg/kg/injection, schedule: Q01DX005 (ip), vehicle: saline",94 % of control
